Measurements taken from ChEMBL document CHEMBL4495565, “Cytopathic SARS-Cov2 screening on VERO-E6 cells in a large repurposing effort” (2020).
Where “and” joins values, the source holds several entries; their conditions need not be identical. Equal values may be shown once. Where a name gives a salt, the structure may show the parent alone. Square brackets hold non-standard residues; d marks the D form. Peptide text beside a SMILES is read from it. * marks the point of attachment. dPhe(4-NHCONH2) = NC(=O)Nc1ccc(C[C@@H](N)C(=O)O)cc1; Dihydroorotyl(S) = O=C1C[C@@H](C(=O)*)NC(=O)N1; dPhe(4-Cl) = N[C@H](Cc1ccc(Cl)cc1)C(=O)O; Phe(4-NH2) = Nc1ccc(C[C@H](N)C(=O)O)cc1; d2Nal = N[C@H](Cc1ccc2ccccc2c1)C(=O)O; Lys(iPr) = CC(C)NCCCC[C@H](N)C(=O)O; d3Pal = N[C@H](Cc1cccnc1)C(=O)O

Tests used:
in vitro [1] = conditions: chlorocebus sabaeus
in vitro [2] = conditions: chlorocebus sabaeus; remark: listed apart in the source
SARS-CoV-2 = experiment: microbe, parasite or virus in culture; type: functional, organism-based, Chlorocebus sabaeus, Vero C1008
[3] = VERO-E6 cells, Selectivity index
[4] = VERO-E6 cells (Vero C1008), uninfected, CC50
[5] = Severe acute respiratory syndrome coronavirus 2, Vero C1008, 48 h

Row | SMILES | selectivity ratio (in vitro [1]; [3]) | CC50 at 48 h (in vitro [2]; [4]) | IC50 (SARS-CoV-2; [5]) | selectivity ratio (in vitro [1]; vero c1008, Selectivity index) | CC50 at 48 h (in vitro [2]; vero c1008, CC50) | IC50 (SARS-CoV-2; vero c1008)
1 | CC(C)[C@H]1c2ccc(F)cc2CC[C@@]1(CCN(C)CCCc1nc2ccccc2[nH]1)OC(=O)C1CC1 | 0.99 | 8.13 µM | 8.21 µM |  |  | 
2 | O[C@@H](COc1cccc2ncccc12)CN1CCN([C@@H]2c3ccccc3[C@@H]3[C@H](c4ccccc42)C3(F)F)CC1 [ZOSUQUIDAR TRIHYDROCHLORIDE] |  |  | 8.4 µM | 1.08 | 9.11 µM | 
3 | COCCNCc1ccc(-c2cc3nccc(Oc4ccc(NC(=S)NC(=O)Cc5ccc(F)cc5)cc4F)c3s2)nc1 [GLESATINIB] | 0.62 | 0.64 µM | 1.04 µM |  |  | 
4 | COC(=O)C[C@@](O)(CCC(C)(C)O)C(=O)O[C@@H]1C(OC)=C[C@]23CCCN2CCc2cc4c(cc2[C@@H]13)OCO4 | 2.46 | 1.94 µM | 0.79 µM |  |  | 
5 | CC(C)(C)c1cc(C=C(C#N)C#N)cc(Br)c1O | 1.18 | 10.4 µM | 8.77 µM |  |  | 
6 | COc1ccc(C[C@H]2NC[C@H](O)[C@H]2OC(C)=O)cc1 [ANISOMYCIN] | 1.11 |  | 0.09 µM |  | 0.1 µM | 
7 | CNC(=O)Nc1ccc(-c2nc(N3CC4CCC(C3)O4)c3cnn(C4CCC5(CC4)OCCO5)c3n2)cc1 | 0.01 | 0.18 µM | 21.6 µM |  |  | 
8 | CC[C@H](CC#N)OC(=O)N[C@@H](C)c1cccc(NC(=O)Nc2ccc(-c3cnco3)c(OC)c2)c1 [AVN-944] | 0.67 | 0.76 µM | 1.14 µM |  |  | 
9 | Cc1c(CN2CCN(C(=O)[C@H](C)O)CC2)sc2c(N3CCOCC3)nc(-c3cnc(N)nc3)nc12 [APITOLISIB] | 0.22 | 0.5 µM | 2.31 µM |  |  | 
10 | Cc1cc2c(F)c(Oc3ncnn4cc(OC[C@@H](C)OC(=O)[C@H](C)N)c(C)c34)ccc2[nH]1 [BRIVANIB ALANINATE] | 0.4 | 2.58 µM | 6.5 µM |  |  | 
11 | O=C(O)c1ccc(N2C(=O)/C(=C/c3ccc(-c4ccc([N+](=O)[O-])cc4)o3)C=C2c2ccccc2)cc1 |  | 12.8 µM | > 33 µM |  |  | 
12 | O=c1cc(N2CCOCC2)oc2c(-c3cccc4c3sc3ccccc34)cccc12 | 0.15 | 0.58 µM | 3.79 µM |  |  | 
13 | COc1ccc(-c2c[nH]c3nccc(-c4ccsc4)c23)c(OC)c1 | 0.05 | 0.82 µM | 15.8 µM |  |  | 
14 | Cc1cnc(Nc2ccc(F)cc2Cl)nc1-c1c[nH]c(C(=O)N[C@H](CO)c2cccc(Cl)c2)c1 | 0.35 | 1.92 µM | 5.54 µM |  |  | 
15 | CN1[C@@H]2CC[C@H]1C[C@@H](OC(=O)c1cc(Cl)cc(Cl)c1)C2 [BEMESETRON] |  | 0.02 µM | > 33 µM |  |  | 
16 | CC(C)(C)c1ccccc1Oc1ncccc1NC(=O)Nc1ccc(OC(F)(F)F)cc1 | 1.41 | 9.9 µM | 7 µM |  |  | 
17 | Cc1cc(N2C[C@@H](C)N[C@@H](C)C2)ncc1-c1ccc(-c2nc3c(ccn3C)c(=O)[nH]2)cc1 |  | 7.14 µM | > 33 µM |  |  | 
18 | OCCCNc1cc(-c2ccnc(Nc3cccc(Cl)c3)n2)ccn1 | 1.03 | 8.17 µM | 7.9 µM |  |  | 
19 | CC(=O)N[C@H](Cc1ccc2ccccc2c1)C(=O)N[C@H](Cc1ccc(Cl)cc1)C(=O)N[C@H](Cc1cccnc1)C(=O)N[C@@H](CO)C(=O)N[C@@H](Cc1ccc(NC(=O)[C@@H]2CC(=O)NC(=O)N2)cc1)C(=O)N[C@H](Cc1ccc(NC(N)=O)cc1)C(=O)N[C@@H](CC(C)C)C(=O)N[C@@H](CCCCNC(C)C)C(=O)N1CCC[C@H]1C(=O)N[C@H](C)C(N)=O [DEGARELIX] (Ac-[d2Nal][dPhe(4-Cl)][d3Pal]S[Phe(4-NH2)](Dihydroorotyl(S))[dPhe(4-NHCONH2)]L[Lys(iPr)]P[dA]-NH2) |  | > 33 µM | 20.7 µM |  |  | 

Row | SMILES | selectivity ratio (in vitro [1]; [3]) | CC50 at 48 h (in vitro [2]; [4]) | IC50 (SARS-CoV-2; [5]) | selectivity ratio (in vitro [1]; vero c1008, Selectivity index) | CC50 at 48 h (in vitro [2]; vero c1008, CC50) | IC50 (SARS-CoV-2; vero c1008)
20 | O=C(c1ccc(OCCN2CCCCC2)cc1)c1c(-c2ccc(O)cc2)sc2cc(O)ccc12 [RALOXIFENE HYDROCHLORIDE] |  | > 33 µM | 15.4 µM |  |  | 
21 | CN(C)c1cccc(-c2c3c(=O)n(-c4ccccc4Cl)[nH]c3cc(=O)n2C)c1 [SETANAXIB] |  |  | 11.8 µM | 1.26 | 14.8 µM | 
22 | Nc1nccc2c1ncn2[C@@H]1C=C(CO)[C@@H](O)[C@H]1O | 0.14 | 0.3 µM | 2.07 µM |  |  | 
23 | O=C(Nc1ccc([N+](=O)[O-])cc1Cl)c1cc(Cl)ccc1O [NICLOSAMIDE] |  |  |  |  | > 33 µM | 4.1 µM and > 33 µM
24 | Cc1cc([N+](=O)[O-])ccc1NS(=O)(=O)c1cc(Cl)ccc1Cl |  | 16.6 µM | > 33 µM |  |  | 
25 | Cc1ccc(Nc2ncc3c(n2)N(C)C(=O)N(c2cc(NC(=O)c4cccc(C(F)(F)F)c4)ccc2C)C3)cn1 | 0.12 | 0.61 µM | 5.21 µM |  |  | 
26 | COc1cc(C[C@H]2c3cc(OC)c(OC)cc3CCN2C)c(Oc2cc3c(cc2OC)-c2c(OC)c(OC)cc4c2[C@H](C3)N(C)CC4)cc1OC [THALICARPINE] | 8.53 | > 33 µM | 3.87 µM |  |  | 
27 | CCN(CC)Cc1cc(Nc2ccnc3cc(Cl)ccc23)ccc1O [AMODIAQUINE] | 4.12 | 16.8 µM | 4.07 µM |  |  | 
28 | Cc1nc2cnc3ccc(C#Cc4cccnc4)cc3c2n1-c1ccc(C(C)(C)C#N)cc1 | 1 | 0.11 µM | 0.11 µM |  |  | 
29 | C=CC(=O)N1CCC(Oc2cc3c(Nc4ccc(Cl)c(Cl)c4F)ncnc3cc2OC)CC1 [POZIOTINIB] |  | 11.5 µM | > 33 µM |  |  | 
30 | CC(C)(C)c1cc(/C=C(\C#N)C(N)=S)cc(C(C)(C)C)c1O [TYRPHOSTIN AG 879] |  | > 33 µM | > 33 µM |  |  | 
31 | CC[n+]1c(-c2ccccc2)c2cc(N)ccc2c2ccc(N)cc21 [HOMIDIUM] |  | 2.04 µM | > 33 µM |  |  | 
32 | O=C(C1CC1)N1CC[C@@H](Cc2n[nH]c(=O)n2-c2ccc(-c3ccc4occc4c3)cc2)C1 |  |  | 17 µM | 1.94 | > 33 µM | 
33 | CN(Cc1cnc2nc(N)nc(N)c2n1)c1ccc(C(=O)N[C@@H](CCC(=O)O)C(=O)O)cc1 [METHOTREXATE] |  | 0.05 µM | 0.05 µM |  |  | 
34 | CC(C)(C)C(=O)/C(=C/c1cccc([N+](=O)[O-])c1)n1cncn1 | 1.23 | 5.31 µM | 4.33 µM |  |  | 
35 | CCCCOCCOc1ccc(-c2ccc3c(c2)/C=C(/C(=O)Nc2ccc([S@@+]([O-])Cc4cncn4CCC)cc2)CCCN3CC(C)C)cc1 [CENICRIVIROC] |  | 11.7 µM | > 33 µM |  |  | 
36 | Cc1c(C(=O)c2cccc3ccccc23)c2cccc3c2n1[C@H](CN1CCOCC1)CO3 [WIN-552122] |  | 7.06 µM | > 33 µM |  |  | 
37 | Cc1cc(O)c2c(=O)c3c(O)cc(O)c4c5c(O)cc(O)c6c(=O)c7c(O)cc(C)c8c1c2c(c34)c(c78)c65 [HYPERICIN] | 5.24 | 1.31 µM | 0.25 µM |  |  | 
38 | CCS(=O)(=O)c1ccc(CC(=O)Nc2cc(Cl)c(-c3ccccc3OC(F)(F)F)c(Cl)c2)cc1 | 0.58 | 12.1 µM | 21 µM |  |  | 

Row | SMILES | selectivity ratio (in vitro [1]; [3]) | CC50 at 48 h (in vitro [2]; [4]) | IC50 (SARS-CoV-2; [5]) | selectivity ratio (in vitro [1]; vero c1008, Selectivity index) | CC50 at 48 h (in vitro [2]; vero c1008, CC50) | IC50 (SARS-CoV-2; vero c1008)
39 | Clc1ccccc1CNC[C@H]1CC[C@H](CNCc2ccccc2Cl)CC1 | 1.36 | 30.9 µM | 22.7 µM |  |  | 
40 | Nc1c[nH]c(=O)c2cc(-c3ccccc3)sc12 |  | > 33 µM | 5.26 µM |  |  | 
41 | CC(C)n1nc(-c2cc3cc(O)ccc3[nH]2)c2c(N)ncnc21 |  |  | > 33 µM | 0.05 | 1.63 µM | 
42 | Cc1c(O)cccc1C(=O)NC(CSc1ccccc1)C(O)CN1CC2CCCCC2CC1C(=O)NC(C)(C)C (centres undefined) |  | > 33 µM | 14.3 µM |  |  | 
43 | COc1ccc(CNc2nc(N(CCO)CCO)nc3c2ncn3C(C)C)cc1 | 0.82 | 6.49 µM | 7.95 µM |  |  | 
44 | CN1CCN(C2CCN(C(=O)Nc3cc(Oc4ccc(NC(=O)C5(C(=O)Nc6ccc(F)cc6)CC5)c(F)c4)ccn3)CC2)CC1 [GOLVATINIB] |  | > 33 µM | 5.89 µM |  |  | 
45 | Cc1ccc(Oc2nc3cc(-c4ccc(-c5ccccc5)cc4)c(Cl)cc3[nH]2)cc1C(=O)O |  | 0.03 µM | > 33 µM |  |  | 
46 | COC(=O)c1ccccc1-c1c2ccc(=N)cc-2oc2cc(N)ccc12 [RHODAMINE123] |  | > 33 µM | 0.8 µM |  |  | 
47 | Cc1[nH]c(/C=C2\C(=O)Nc3cc(-c4ccccc4)ccc32)c(C)c1CCC(=O)O | 0.01 | 0.03 µM | 4.1 µM |  |  | 
48 | COc1cc(/C=C2\SC(=O)NC2=O)ccc1Oc1ccc(C#N)cc1C(F)(F)F |  | 3.33 µM | > 33 µM |  |  | 
49 | C[C@@H](OC[C@@]1(c2ccccc2)CC[C@]2(CCC(=O)N2)CN1)c1cc(C(F)(F)F)cc(C(F)(F)F)c1 [ROLAPITANT] |  | > 33 µM | 19.6 µM |  |  | 
50 | N#Cc1cc2c(OCC(O)CN3CCN(C(c4ccccc4)c4ccccc4)CC3)cccc2[nH]1 (racemic; form 1) | 0.49 | 12.7 µM | 25.6 µM |  |  | 
51 | CCCCCCCCCCCCCCOc1ccc(C(=O)O)o1 [TOFA] |  | > 33 µM | 4.04 µM |  |  | 
52 | CC(C)C[C@H](NC(=O)[C@@H](NC(=O)c1cccc(-c2ccccc2)n1)[C@@H](C)O)B(O)O [DELANZOMIB] | 0.35 | 0.46 µM | 1.3 µM |  |  | 
53 | Cc1cc(C)c2c(c1)[C@@H](N(Cc1cc(C(F)(F)F)cc(C(F)(F)F)c1)c1nnn(C)n1)CCCN2C[C@H]1CC[C@H](C(=O)O)CC1 [EVACETRAPIB] |  | > 33 µM | > 33 µM |  |  | 
54 | Cc1[nH]c(/C=C2\C(=O)Nc3ccc(S(=O)(=O)N(C)c4cccc(Cl)c4)cc32)c(C)c1C(=O)N1CCN(C)CC1 | 0.96 | 10.4 µM | 10.9 µM |  |  | 
55 | Nc1cc2c3ccccc3ccc2c2ccccc12 |  | > 33 µM | 11.6 µM |  |  | 
56 | C[C@H]1Cc2c([nH]c3cc(Cl)c(F)cc23)[C@@]2(N1)C(=O)Nc1ccc(Cl)cc12 [CIPARGAMIN] |  | > 33 µM | > 33 µM |  |  | 
